# Source: patent publication US11413261B2, “Pharmaceutical composition for treating cancer comprising lactate metal salt” (METIMEDI PHARMACEUTICALS CO., LTD, priority 2014, dated 2022)
# Tests used:
# [1] = test system: β-catenin; assay: β-catenin and activated β-catenin protein expression in breast cancer cell lines; format: cell-based, human; settings: MCF-7 and MDA-MB-231; with increasing concentration
# Method: Using the same method as that of Example 3-1 the expression levels of β-catenin and activated β-catenin depending on the concentration of calcium lactate were compared at the protein expression level (FIG. 6) with a human breast cancer cell line (MCF-7) cultured in a cancer cell culture medium (RPMI1640 medium including 10% FBS and 1% penicillin/streptomycin) at 37° C. with 5% CO2 and a human breast cancer cell line (MDA-MB-231) cultured in another cancer cell culture medium (DMEM medium including 10% FBS and 1% penicillin/streptomycin) at 37° C. with 5% CO2.
# [2] = test system: cancer cell lines; assay: α-KG level in cancer cells (α-Ketoglutarate assay kit); format: cell-based; settings: normal medium or glutamine-free medium; 2.5 mM, 24 hours
# Method: Cancer cell lines with the cell number of 5×10^5 cells cultured in a normal medium or a glutamine-free medium were treated with 2.5 mM calcium lactate for 24 hours and the cells were disrupted by ultrasonication and filtered using a 10 kDa filter so as to obtain filtrate. The obtained filtrate was applied to an α-Ketoglutarate assay kit (BioVision, Exton, Pa.) to measure the concentration of α-KG included in the filtrate (FIGS. 14a and 14b).
# [3] = test system: human vascular endothelial cell (HUVEC); assay: Tube formation of HUVEC in culture supernatants of treated cancer cell lines; format: cell-based
# Excerpt: A human vascular endothelial cell (HUVEC) was inoculated into each of the obtained culture supernatant and cultured to analyze a conformational change of cells (FIG. 17). In this case, an HUVEC cultured using the culture medium of a cancer cell line cultured without treating with calcium lactate was used as a control group, and an HUVEC cultured with the treatment with Sulforaphane, which is a growth inhibitor of an HUVEC, was used as a comparison group.
# [4] = test system: melanoma cell lines (SKMEL-02 and SKMEL-28); assay: Cell migration of melanoma cell lines; format: cell-based; settings: 2.5 mM, 24 hours after insert removal, vs untreated
# Method: A colorectal cancer cell line HCT-116 with the cell number of 4×10^5 cells was inoculated into a culture container at the center of which an ibidi culture insert having a thickness of 500 μm was placed, and treated with 2.5 mM calcium lactate and then cultured for 24 hours. Then, the insert was removed and further cultured for 12 hours to analyze migration of the cancer cells to a site where the insert was removed using a JuLi Br, Live cell analyzer (NanoEnTek Inc., South Korea) (FIG. 18). In this case, a colorectal cancer cell line cultured without treating with calcium lactate was used as a control group.
# Using the same method as Example 8-1, with melanoma cell lines (SKMEL-02 and SKMEL-28) instead of the colorectal cancer cell line and further cultured for 24 hours after removal of the insert was performed, the effect of calcium lactate on migration of the melanoma cell lines was examined (FIG. 20).
# [5] = test system: human colorectal cancer stem cell line; assay: Conformational change of sphere of colorectal cancer stem cell line; format: cell-based; settings: vs DMSO control
# Method: A human colorectal cancer stem cell line was inoculated into a stem cell culture medium (medium including 1% penicillin/streptomycin and 50 times B27 and including a DMEM medium and an F12 medium mixed at 1:1) and cultured at 37° C. with 5% CO2. The cultured colorectal cancer stem cell line was treated with calcium lactate and then, it was checked whether or not there is the conformational change of a sphere formed by the stem cells (FIG. 22). In this case, a cancer cell treated with DMSO instead of calcium lactate was used as a control group.
# [6] = test system: human colorectal cancer cell lines (HCT-116, HT-29, and DLD-1); assay: Colony-forming ability of colorectal cancer cell lines in solid medium; format: cell-based; settings: HCT-116, HT-29, DLD-1; with increasing concentration (0.5, 1.5, 2.5 mM), 10 days
# Method: Firstly, human colorectal cancer cell lines (HCT-116, HT-29, and DLD-1) were inoculated into solid mediums including various concentrations (0 mM, 0.5 mM, 1.5 mM, or 2.5 mM) of calcium lactate and cultured for 10 days. After the completion of the culture, the cells were immobilized and stained with hematoxylin. Then, the number of cancer cells formed into colonies was counted (FIG. 23).
# [7] = test system: human colorectal cancer cell lines (HCT-116, HT-29, and DLD-1); assay: Viability of colorectal cancer cell lines in plate with low adhesivity; format: cell-based; settings: HCT-116, HT-29, DLD-1, 1.5 or 2.5 mM (untreated about 5%)
# Method: Human colorectal cancer cell lines (HCT-116, HT-29, and DLD-1) were inoculated into a 6-well plate with low adhesivity and then cultured treating with various concentrations (0 mM, 1.5 mM, or 2.5 mM) of calcium lactate. Then, survival rates of the cells were compared (FIG. 26).
# [8] = test system: HIF-1α; assay: HIF-1α expression in tumor tissues of animal model; format: in vivo, Balb/c mice; settings: HT-29 tumor tissue
# Method: A colorectal cancer cell (HT-29) cultured in an RPMI1640 medium and then diluted with PBS was subcutaneously implanted into the flank of Balb/c mice. The mice were bred until the colorectal cancer cell grew to about 5 mm. Then, four groups were set up; a control group untreated with calcium lactate for 30 days, an experimental group 1 (peroral, P.O.) administered with 2.5 mM calcium lactate by oral administration, an experimental group 2 (intra tumor, I.T) injected with 2.5 mM calcium lactate around tumor, and an experimental group 3 (subcutaneous, S.C) subcutaneously injected with 25 mM calcium lactate (FIG. 27).
# (§1) Colorectal cancer tissues were extracted from the mice of the control group or the experimental group 1 set up in Example 10-1, and expression levels of HIF-1α and VEGF involved in metastasis, invasion, and angiogenesis of tumor expressed therein were compared (FIG. 29). In this case, GAPDH was used as internal control groups.
# as §1, with “group 2” for “group 1”, “tumor” for “tumor expressed”, “(FIG. 31).” for “(FIG. 29).”
smiles,measurement,setting,value
CC(O)C(=O)[O-].CC(O)C(=O)[O-].[Ca+2] (centres unmarked) [calcium lactate],protein expression levels of activated β-catenin,[1],decreased
same,protein expression levels of β-catenin,[1],decreased
same,α-KG levels in the cells,[2],sharply increased
same,tube-forming ability of HUVEC,[3]; culture supernatant of cancer cell line treated with 2.5 mM,reduced tube-forming ability similar to the comparison group treated with Sulforaphane
same,tube-forming ability of HUVEC,"[3]; culture supernatants of cancer cell lines treated with 0.5, 1, 1.5, 2.5 mM for 24 hours, vs control",reduced tube-forming ability
same,cell migration (metastatic capacity),[4],relatively low levels of metastasis
same,conformation of the sphere,[5],destructed
same,number of colonies,[6],decreased
same,cell apoptosis rate,[7],about 90%
same,expression of HIF-1α,"[8]; experimental group 1, 2.5 mM oral administration",inhibited
same,expression of HIF-1α,"[8]; experimental group 2, 2.5 mM injected around tumor",inhibited
